# Data as given in ChEMBL document CHEMBL5465560, “Selectivity Literature for EUbOPEN Chemogenomic Library” (2024).
# Columns and labels:
# [1] = target: Serine/threonine-protein kinase WNK3 (Homo sapiens) (UniProt Q9BYP7); assay: Selectivity interaction (KinomeScan (DiscoverX)) EUB0001049a WNK3; conditions: at 1 µM
# [2] = target: Macrophage-stimulating protein receptor (Homo sapiens, UniProt Q04912); assay: Selectivity interaction (KinomeScan (DiscoverX)) EUB0001079a MST1R; conditions: at 1 µM
# Sequence of Macrophage-stimulating protein receptor (Q04912 25-304 limits assumed): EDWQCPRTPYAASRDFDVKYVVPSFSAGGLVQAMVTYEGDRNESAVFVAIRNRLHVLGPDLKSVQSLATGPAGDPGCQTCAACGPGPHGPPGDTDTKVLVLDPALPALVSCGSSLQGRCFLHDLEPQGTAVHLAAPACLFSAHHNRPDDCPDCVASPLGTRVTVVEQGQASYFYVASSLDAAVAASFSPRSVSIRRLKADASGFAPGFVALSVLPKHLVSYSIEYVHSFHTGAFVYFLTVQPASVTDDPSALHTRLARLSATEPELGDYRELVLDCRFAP
# Sequence of Macrophage-stimulating protein receptor (Q04912 310-1400 limits assumed): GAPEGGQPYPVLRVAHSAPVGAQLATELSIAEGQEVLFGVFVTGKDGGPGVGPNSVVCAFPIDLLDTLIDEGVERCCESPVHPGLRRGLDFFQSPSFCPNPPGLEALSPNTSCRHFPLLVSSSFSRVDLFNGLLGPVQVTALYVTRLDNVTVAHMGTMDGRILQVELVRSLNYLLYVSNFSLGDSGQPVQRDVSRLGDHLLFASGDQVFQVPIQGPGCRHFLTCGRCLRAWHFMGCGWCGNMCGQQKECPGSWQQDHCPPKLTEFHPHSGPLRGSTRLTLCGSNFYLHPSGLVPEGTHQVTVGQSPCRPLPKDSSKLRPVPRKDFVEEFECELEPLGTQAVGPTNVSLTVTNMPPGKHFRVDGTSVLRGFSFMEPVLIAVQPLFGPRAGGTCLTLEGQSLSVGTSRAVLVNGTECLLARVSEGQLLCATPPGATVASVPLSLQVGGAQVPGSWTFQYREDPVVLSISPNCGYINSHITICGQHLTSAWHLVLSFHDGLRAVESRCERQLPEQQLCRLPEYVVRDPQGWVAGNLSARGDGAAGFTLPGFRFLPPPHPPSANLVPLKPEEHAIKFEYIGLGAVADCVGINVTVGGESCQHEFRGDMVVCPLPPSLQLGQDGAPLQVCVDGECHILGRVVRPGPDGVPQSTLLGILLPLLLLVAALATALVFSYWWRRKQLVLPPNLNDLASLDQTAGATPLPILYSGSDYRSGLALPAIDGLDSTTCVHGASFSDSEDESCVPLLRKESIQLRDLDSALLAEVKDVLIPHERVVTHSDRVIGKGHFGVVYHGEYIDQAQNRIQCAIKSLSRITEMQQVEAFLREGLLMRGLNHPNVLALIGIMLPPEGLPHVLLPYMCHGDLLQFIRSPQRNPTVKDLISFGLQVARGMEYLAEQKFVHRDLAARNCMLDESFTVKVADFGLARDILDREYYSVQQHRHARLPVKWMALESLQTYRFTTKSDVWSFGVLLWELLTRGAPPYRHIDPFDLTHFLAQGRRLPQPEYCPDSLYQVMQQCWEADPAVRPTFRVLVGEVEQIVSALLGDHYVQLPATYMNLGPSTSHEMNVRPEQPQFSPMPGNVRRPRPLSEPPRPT
# [3] = target: T1, Phosphatidylinositol 4,5-bisphosphate 3-kinase catalytic subunit delta isoform (Homo sapiens) (UniProt O00329); assay: Selectivity interaction (ActivX KiNativ screen (kinase selectivity in THP-1 cell lysates)) EUB0000639a PIK3CD; assay type: subcellular; conditions: lysate, at 0.04 µM
# T1 sequence (whole entry): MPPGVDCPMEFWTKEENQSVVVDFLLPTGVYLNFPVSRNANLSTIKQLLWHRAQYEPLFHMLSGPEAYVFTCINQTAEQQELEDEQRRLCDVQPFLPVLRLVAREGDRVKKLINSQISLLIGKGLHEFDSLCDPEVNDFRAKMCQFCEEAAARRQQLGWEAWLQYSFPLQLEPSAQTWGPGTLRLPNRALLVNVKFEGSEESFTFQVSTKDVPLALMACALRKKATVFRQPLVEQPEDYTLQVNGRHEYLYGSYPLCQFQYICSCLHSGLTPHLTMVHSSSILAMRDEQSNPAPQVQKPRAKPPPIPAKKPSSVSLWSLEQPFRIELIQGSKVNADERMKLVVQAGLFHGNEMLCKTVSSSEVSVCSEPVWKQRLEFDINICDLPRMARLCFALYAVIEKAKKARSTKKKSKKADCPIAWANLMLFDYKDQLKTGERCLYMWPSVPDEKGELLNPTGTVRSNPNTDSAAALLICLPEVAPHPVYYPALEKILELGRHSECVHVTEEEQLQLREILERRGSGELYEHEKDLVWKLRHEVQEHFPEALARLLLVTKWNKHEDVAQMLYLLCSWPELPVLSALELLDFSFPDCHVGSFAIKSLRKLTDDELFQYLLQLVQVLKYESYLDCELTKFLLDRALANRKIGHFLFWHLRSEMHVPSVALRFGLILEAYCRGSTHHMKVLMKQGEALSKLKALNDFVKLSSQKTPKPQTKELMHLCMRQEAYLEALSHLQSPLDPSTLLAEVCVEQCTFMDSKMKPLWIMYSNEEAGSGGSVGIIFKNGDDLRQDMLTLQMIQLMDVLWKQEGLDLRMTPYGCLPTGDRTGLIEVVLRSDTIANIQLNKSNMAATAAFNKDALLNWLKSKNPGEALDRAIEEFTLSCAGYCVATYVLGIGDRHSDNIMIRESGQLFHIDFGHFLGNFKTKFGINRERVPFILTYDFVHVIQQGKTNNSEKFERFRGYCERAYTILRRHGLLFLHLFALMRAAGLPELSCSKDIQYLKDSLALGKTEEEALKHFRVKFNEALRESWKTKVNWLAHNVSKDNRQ
# [4] = target: Activated CDC42 kinase 1 (Homo sapiens, UniProt Q07912); assay: Selectivity interaction (KinomeScan (DiscoverX)) EUB0000045b TNK2
# Sequence of Activated CDC42 kinase 1 (Q07912 whole entry, looked up): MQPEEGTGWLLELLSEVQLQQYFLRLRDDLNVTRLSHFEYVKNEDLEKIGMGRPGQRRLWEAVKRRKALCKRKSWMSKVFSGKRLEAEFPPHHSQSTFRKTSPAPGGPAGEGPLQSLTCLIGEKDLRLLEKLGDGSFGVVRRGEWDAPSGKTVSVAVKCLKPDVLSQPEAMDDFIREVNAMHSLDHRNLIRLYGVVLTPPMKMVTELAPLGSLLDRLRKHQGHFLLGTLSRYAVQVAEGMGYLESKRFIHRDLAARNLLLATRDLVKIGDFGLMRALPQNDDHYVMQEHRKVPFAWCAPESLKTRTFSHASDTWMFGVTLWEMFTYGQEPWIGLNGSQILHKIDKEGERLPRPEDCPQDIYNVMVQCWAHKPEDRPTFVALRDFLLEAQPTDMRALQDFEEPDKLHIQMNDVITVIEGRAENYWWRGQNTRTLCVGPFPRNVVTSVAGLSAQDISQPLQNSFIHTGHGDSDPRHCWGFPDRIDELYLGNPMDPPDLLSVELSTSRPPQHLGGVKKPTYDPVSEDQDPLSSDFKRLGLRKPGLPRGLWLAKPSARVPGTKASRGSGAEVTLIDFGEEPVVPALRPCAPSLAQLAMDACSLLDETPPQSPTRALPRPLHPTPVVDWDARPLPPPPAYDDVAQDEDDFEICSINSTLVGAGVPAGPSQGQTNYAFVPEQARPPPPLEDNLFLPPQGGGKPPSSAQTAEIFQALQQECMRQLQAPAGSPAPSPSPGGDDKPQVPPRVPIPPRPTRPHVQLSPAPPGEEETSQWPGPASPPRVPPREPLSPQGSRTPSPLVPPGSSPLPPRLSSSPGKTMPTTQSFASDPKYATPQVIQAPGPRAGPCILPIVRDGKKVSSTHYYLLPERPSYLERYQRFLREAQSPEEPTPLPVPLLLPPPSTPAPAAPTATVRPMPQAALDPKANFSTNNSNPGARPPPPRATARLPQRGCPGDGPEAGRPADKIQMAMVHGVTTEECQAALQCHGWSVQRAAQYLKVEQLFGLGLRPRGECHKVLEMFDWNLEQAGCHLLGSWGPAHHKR
# [5] = target: T2, Mitogen-activated protein kinase kinase kinase 12 (Homo sapiens) (UniProt Q12852); assay: Selectivity interaction (KinomeScan (DiscoverX)) EUB0000655a MAP3K12; conditions: at 10 µM
# T2 sequence (whole entry): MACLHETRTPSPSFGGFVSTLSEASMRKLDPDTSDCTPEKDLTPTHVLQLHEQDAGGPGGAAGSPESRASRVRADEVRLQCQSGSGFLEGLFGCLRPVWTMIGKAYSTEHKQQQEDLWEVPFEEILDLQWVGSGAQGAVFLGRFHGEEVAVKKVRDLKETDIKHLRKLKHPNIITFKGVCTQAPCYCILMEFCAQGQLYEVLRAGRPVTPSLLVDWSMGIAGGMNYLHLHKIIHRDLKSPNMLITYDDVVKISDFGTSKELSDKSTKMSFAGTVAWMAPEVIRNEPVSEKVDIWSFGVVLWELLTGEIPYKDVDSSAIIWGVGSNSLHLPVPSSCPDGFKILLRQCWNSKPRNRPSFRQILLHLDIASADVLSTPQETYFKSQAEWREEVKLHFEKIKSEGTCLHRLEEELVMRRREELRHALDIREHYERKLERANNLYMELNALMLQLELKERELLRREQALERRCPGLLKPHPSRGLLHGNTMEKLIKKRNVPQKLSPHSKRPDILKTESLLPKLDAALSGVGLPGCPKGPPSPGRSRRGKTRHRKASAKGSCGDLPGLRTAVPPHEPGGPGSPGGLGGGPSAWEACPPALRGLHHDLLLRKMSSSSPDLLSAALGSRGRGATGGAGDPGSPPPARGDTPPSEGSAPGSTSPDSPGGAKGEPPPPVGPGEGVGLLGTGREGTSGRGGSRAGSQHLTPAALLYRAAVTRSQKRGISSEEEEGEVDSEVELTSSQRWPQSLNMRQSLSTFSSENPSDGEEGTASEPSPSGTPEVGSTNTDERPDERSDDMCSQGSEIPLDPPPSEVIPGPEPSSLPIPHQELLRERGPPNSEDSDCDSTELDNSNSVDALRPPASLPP
# [6] = target: Serine/threonine-protein kinase 25 (Homo sapiens) (UniProt O00506); assay: Selectivity interaction (Kinase panel (Z-LYTE Assay)) EUB0001632a STK25; conditions: at 10 µM
# Sequence of Serine/threonine-protein kinase 25 (Homo sapiens) (O00506 whole entry, looked up): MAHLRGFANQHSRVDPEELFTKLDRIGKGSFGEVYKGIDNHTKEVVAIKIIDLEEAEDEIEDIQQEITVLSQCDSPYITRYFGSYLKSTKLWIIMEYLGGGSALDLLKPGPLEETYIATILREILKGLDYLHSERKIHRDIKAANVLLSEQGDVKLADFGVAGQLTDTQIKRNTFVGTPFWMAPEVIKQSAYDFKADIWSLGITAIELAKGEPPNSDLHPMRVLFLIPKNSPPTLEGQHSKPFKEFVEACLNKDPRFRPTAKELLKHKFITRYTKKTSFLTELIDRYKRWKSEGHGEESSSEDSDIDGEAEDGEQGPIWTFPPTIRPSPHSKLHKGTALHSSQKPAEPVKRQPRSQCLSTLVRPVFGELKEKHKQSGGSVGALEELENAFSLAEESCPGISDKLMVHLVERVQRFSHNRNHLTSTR
# Sequence of Serine/threonine-protein kinase WNK3 (Homo sapiens) (Q9BYP7 whole entry): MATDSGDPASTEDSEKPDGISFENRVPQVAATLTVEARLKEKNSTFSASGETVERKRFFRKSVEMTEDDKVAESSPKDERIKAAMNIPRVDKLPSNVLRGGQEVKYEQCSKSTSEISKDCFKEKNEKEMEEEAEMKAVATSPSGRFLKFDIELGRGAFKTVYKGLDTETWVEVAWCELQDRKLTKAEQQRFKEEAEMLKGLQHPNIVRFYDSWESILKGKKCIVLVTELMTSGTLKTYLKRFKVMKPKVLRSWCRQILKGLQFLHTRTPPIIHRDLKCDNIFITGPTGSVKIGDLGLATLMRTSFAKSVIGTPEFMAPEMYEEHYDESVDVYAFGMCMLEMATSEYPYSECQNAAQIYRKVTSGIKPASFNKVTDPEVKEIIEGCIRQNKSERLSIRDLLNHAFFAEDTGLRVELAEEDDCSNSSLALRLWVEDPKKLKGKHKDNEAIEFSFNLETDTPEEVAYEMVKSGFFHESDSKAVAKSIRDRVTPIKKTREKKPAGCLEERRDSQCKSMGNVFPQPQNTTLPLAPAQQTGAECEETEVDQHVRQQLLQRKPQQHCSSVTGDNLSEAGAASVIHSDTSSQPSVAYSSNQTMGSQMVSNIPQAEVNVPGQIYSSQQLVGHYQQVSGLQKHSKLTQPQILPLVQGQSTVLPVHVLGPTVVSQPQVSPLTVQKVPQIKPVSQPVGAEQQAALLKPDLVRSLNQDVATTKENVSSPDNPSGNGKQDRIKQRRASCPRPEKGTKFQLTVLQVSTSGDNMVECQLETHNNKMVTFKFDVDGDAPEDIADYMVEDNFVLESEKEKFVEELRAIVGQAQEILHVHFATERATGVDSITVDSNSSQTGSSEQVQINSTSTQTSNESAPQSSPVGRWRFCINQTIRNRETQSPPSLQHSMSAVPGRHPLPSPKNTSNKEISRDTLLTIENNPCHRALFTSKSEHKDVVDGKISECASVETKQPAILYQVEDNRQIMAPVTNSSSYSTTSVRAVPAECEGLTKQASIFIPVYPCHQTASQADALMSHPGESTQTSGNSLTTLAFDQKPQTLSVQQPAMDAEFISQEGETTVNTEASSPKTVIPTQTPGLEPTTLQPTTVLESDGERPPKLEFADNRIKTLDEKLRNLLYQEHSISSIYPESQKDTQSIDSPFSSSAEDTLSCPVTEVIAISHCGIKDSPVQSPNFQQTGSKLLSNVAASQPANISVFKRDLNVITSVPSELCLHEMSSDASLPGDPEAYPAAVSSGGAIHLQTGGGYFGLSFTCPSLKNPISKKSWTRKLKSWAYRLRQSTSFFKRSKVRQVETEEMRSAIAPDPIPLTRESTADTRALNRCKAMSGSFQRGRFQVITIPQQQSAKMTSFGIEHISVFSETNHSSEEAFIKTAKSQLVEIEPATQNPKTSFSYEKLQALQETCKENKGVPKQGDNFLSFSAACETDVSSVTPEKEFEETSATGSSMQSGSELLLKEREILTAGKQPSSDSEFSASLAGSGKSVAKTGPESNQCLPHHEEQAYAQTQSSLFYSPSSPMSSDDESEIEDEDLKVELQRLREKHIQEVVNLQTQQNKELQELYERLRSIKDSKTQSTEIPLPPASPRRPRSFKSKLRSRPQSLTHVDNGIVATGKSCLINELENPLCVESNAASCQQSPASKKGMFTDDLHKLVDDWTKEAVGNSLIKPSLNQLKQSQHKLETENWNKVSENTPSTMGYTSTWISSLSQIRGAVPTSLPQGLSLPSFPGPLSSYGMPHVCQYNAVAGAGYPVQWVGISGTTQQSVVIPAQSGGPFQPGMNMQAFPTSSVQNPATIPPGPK
smiles,measurement,setting,value
COc1cc(Nc2nc(C)cc(-c3cnn4nc(OC)ccc34)n2)cc(C(F)(F)F)c1,% of control,[1],81%
Nc1cnc(N2CCc3cc(S(=O)(=O)Nc4c(F)cc(Cl)cc4F)cc(N4CCCC4=O)c32)nc1 [TP-020n],% of control,[2],98%
CC[C@@H]1[C@H](F)C(=O)N[C@@H]1COc1nccc2cc(C(N)=O)c(OC)cc12 [ZIMLOVISERTIB],% of inhibition,[3],3.5%
C=CC(=O)Nc1cc(-n2c(=O)ccc3cnc4ccc(-c5ccc(NS(C)(=O)=O)cc5)cc4c32)ccc1C,% of control,[4]; at 1 µM,100%
same,% of control,[4]; at 10 µM,100%
CN(C)CCOc1ccc(-c2nc(-c3ccncc3)c(-c3ccc4c(c3)CC/C4=N\O)[nH]2)cc1,% of control,[5],49%
Cn1cc(-n2cnc3c(NCc4nc5cc(Cl)c(Cl)cc5[nH]4)nc(N4CCOCC4)nc32)cn1,% of control,[6],17.9%
